Measured values published in US10004701B2, “Methods and compositions for treating infection” (UNIVERSITY OF ROCHESTER, priority 2012, dated 2018).
Structures can show the parent of a compound that is named as a salt. Where two headings read alike, the source gives them in different places.

Columns and labels:
Assay in all cases: AK assay 384-well format, Prestwick library screening
[1] = tested on: E. faecium; format: cell-based, Enterococcus faecium; settings: 50 μM final drug concentration; for fold induction at 50 µM: Enterococcus faecium, 3 h
[2] = tested on: S. aureus strain USA300-0114; format: cell-based, Staphylococcus aureus; settings: 50 μM final drug concentration; for fold induction at 50 µM: Staphylococcus aureus, USA300, 3 h
[3] = tested on: K. pneumoniae; format: cell-based, Klebsiella pneumoniae; settings: 50 μM final drug concentration; for fold induction at 50 µM: Klebsiella pneumoniae, 3 h
[4] = tested on: A. baumannii strain 98-37-09; format: cell-based, Acinetobacter baumannii; settings: 50 μM final drug concentration; for fold induction at 50 µM: Acinetobacter baumannii, 983709, 3 h
[5] = tested on: P. aeruginosa; format: cell-based, Pseudomonas aeruginosa; settings: 50 μM final drug concentration; for fold induction at 50 µM: Pseudomonas aeruginosa, 3 h
[6] = tested on: E. cloacae; format: cell-based, Enterobacter cloacae; settings: 50 μM final drug concentration; for fold induction at 50 µM: Enterobacter cloacae, 3 h
[7] = tested on: E. coli; format: cell-based, Escherichia coli; settings: 50 μM final drug concentration; for fold induction at 50 µM: Escherichia coli, 3 h
[8] = planktonic, […], read-out: AK-based Prestwick Library Screening Results, E. faecium (fold increase in extracellular AK activity)
[9] = planktonic, […], read-out: AK-based Prestwick Library Screening Results, S. aureus (fold increase in extracellular AK activity)
[10] = planktonic, […], read-out: AK-based Prestwick Library Screening Results, K. pneumoniae (fold increase in extracellular AK activity)
[11] = planktonic, […], read-out: AK-based Prestwick Library Screening Results, A. baumannii (fold increase in extracellular AK activity)
[12] = planktonic, […], read-out: AK-based Prestwick Library Screening Results, P. aeruginosa (fold increase in extracellular AK activity)
[13] = planktonic, […], read-out: AK-based Prestwick Library Screening Results, E. cloacae (fold increase in extracellular AK activity)
[14] = planktonic, […], read-out: AK-based Prestwick Library Screening Results, E. coli (fold increase in extracellular AK activity)

Cc1ccc(N(CC2=NCCN2)c2cccc(O)c2)cc1 [Phentolamine hydrochloride]
fold induction at 50 µM ([1]; planktonic E. faecium, 384-well, cutoff for positive-scoring molecules 3-fold increase, read-out: AK-based Prestwick Library Screening Results: E. faecium (increase in extracellular AK activity)): 1 | fold induction at 50 µM ([2]; planktonic S. aureus, 384-well, cutoff for positive-scoring molecules 3-fold increase, read-out: AK-based Prestwick Library Screening Results: S. aureus (increase in extracellular AK activity)): 1.1 | fold induction at 50 µM ([3]; planktonic K. pneumoniae, 384-well, cutoff for positive-scoring molecules 3-fold increase, read-out: AK-based Prestwick Library Screening Results: K. pneumoniae (increase in extracellular AK activity)): 1.1 | fold induction at 50 µM ([4]; planktonic A. baumannii, 384-well, cutoff for positive-scoring molecules 3-fold increase, read-out: AK-based Prestwick Library Screening Results: A. baumannii (increase in extracellular AK activity)): 1.4 | fold induction at 50 µM ([5]; planktonic P. aeruginosa, 384-well, cutoff for positive-scoring molecules 3-fold increase, read-out: AK-based Prestwick Library Screening Results: P. aeruginosa (increase in extracellular AK activity)): 1.2 | fold induction at 50 µM ([6]; planktonic E. cloacae, 384-well, cutoff for positive-scoring molecules 3-fold increase, read-out: AK-based Prestwick Library Screening Results: E. cloacae (increase in extracellular AK activity)): 1.2 | fold induction at 50 µM ([7]; planktonic E. coli, 384-well, cutoff for positive-scoring molecules 3-fold increase, read-out: AK-based Prestwick Library Screening Results: E. coli (increase in extracellular AK activity)): 1.4

OC[C@H]1O[C@@H](Oc2ccc(O)cc2)[C@H](O)[C@@H](O)[C@@H]1O [Arbutin]
fold induction at 50 µM ([1]; planktonic E. faecium, positive cutoff 3-fold increase, read-out: AK-based Prestwick library screening result, E. faecium (fold increase in extracellular AK activity)): 0.9 | fold induction at 50 µM ([2]; planktonic S. aureus, positive cutoff 3-fold increase, read-out: AK-based Prestwick library screening result, S. aureus (fold increase in extracellular AK activity)): 1.1 | fold induction at 50 µM ([3]; planktonic K. pneumoniae, positive cutoff 3-fold increase, read-out: AK-based Prestwick library screening result, K. pneumoniae (fold increase in extracellular AK activity)): 1.2 | fold induction at 50 µM ([4]; planktonic A. baumannii, positive cutoff 3-fold increase, read-out: AK-based Prestwick library screening result, A. baumannii (fold increase in extracellular AK activity)): 1.5 | fold induction at 50 µM ([5]; planktonic P. aeruginosa, positive cutoff 3-fold increase, read-out: AK-based Prestwick library screening result, P. aeruginosa (fold increase in extracellular AK activity)): 1.1 | fold induction at 50 µM ([6]; planktonic E. cloacae, positive cutoff 3-fold increase, read-out: AK-based Prestwick library screening result, E. cloacae (fold increase in extracellular AK activity)): 1.4 | fold induction at 50 µM ([7]; planktonic E. coli, positive cutoff 3-fold increase, read-out: AK-based Prestwick library screening result, E. coli (fold increase in extracellular AK activity)): 1.2

CN(C)CCCN1c2ccccc2Sc2ccccc21 [Promazine hydrochloride]
fold induction at 50 µM ([1]; cutoff for positive-scoring molecules 3-fold increase, read-out: AK-based Prestwick Library Screening Results, E. faecium (fold increase in extracellular AK activity)): 1 | fold induction at 50 µM ([2]; cutoff for positive-scoring molecules 3-fold increase, read-out: AK-based Prestwick Library Screening Results, S. aureus (fold increase in extracellular AK activity)): 1.4 | fold induction at 50 µM ([3]; cutoff for positive-scoring molecules 3-fold increase, read-out: AK-based Prestwick Library Screening Results, K. pneumoniae (fold increase in extracellular AK activity)): 0.8 | fold induction at 50 µM ([4]; cutoff for positive-scoring molecules 3-fold increase, read-out: AK-based Prestwick Library Screening Results, A. baumannii (fold increase in extracellular AK activity)): 0.9 | fold induction at 50 µM ([5]; cutoff for positive-scoring molecules 3-fold increase, read-out: AK-based Prestwick Library Screening Results, P. aeruginosa (fold increase in extracellular AK activity)): 1.1 | fold induction at 50 µM ([6]; cutoff for positive-scoring molecules 3-fold increase, read-out: AK-based Prestwick Library Screening Results, E. cloacae (fold increase in extracellular AK activity)): 1.7 | fold induction at 50 µM ([7]; cutoff for positive-scoring molecules 3-fold increase, read-out: AK-based Prestwick Library Screening Results, E. coli (fold increase in extracellular AK activity)): 1.2

CCC1(CC)C(=O)C=CNC1=O [Pyrithyldione]
fold induction at 50 µM [1, 8]: 0.8 | fold induction at 50 µM [2, 9]: 0.6 | fold induction at 50 µM [3, 10]: 0.6 | fold induction at 50 µM [4, 11]: 0.5 | fold induction at 50 µM [5, 12]: 0.6 | fold induction at 50 µM [6, 13]: 0.7 | fold induction at 50 µM [7, 14]: 0.7

COc1ccc2c3c([nH]c2c1)[C@H]1C[C@H]2[C@H](C[C@@H](O)[C@H](OC)[C@H]2C(=O)O)CN1CC3.Cl [Reserpinic acid hydrochloride]
AK-based Prestwick library screening result, E. faecium (fold increase in extracellular AK activity) ([1]; planktonic E. faecium, positive cutoff 3-fold increase): 0.9 | AK-based Prestwick library screening result, S. aureus (fold increase in extracellular AK activity) ([2]; planktonic S. aureus, positive cutoff 3-fold increase): 0.6 | AK-based Prestwick library screening result, K. pneumoniae (fold increase in extracellular AK activity) ([3]; planktonic K. pneumoniae, positive cutoff 3-fold increase): 0.7 | AK-based Prestwick library screening result, A. baumannii (fold increase in extracellular AK activity) ([4]; planktonic A. baumannii, positive cutoff 3-fold increase): 0.8 | AK-based Prestwick library screening result, P. aeruginosa (fold increase in extracellular AK activity) ([5]; planktonic P. aeruginosa, positive cutoff 3-fold increase): 0.8 | AK-based Prestwick library screening result, E. cloacae (fold increase in extracellular AK activity) ([6]; planktonic E. cloacae, positive cutoff 3-fold increase): 1.0 | AK-based Prestwick library screening result, E. coli (fold increase in extracellular AK activity) ([7]; planktonic E. coli, […]): 0.9

CCN1C[C@]2(COC)CC[C@H](O)[C@]34C1[C@@](O)([C@@H](OC)[C@H]23)[C@@]1(O)C[C@H](OC)[C@H]2C[C@@H]4[C@@H]1[C@H]2OC [Delsoline]
fold induction at 50 µM [1, 8]: 0.9 | fold induction at 50 µM [2, 9]: 0.8 | fold induction at 50 µM [3, 10]: 0.7 | fold induction at 50 µM [4, 11]: 0.9 | fold induction at 50 µM [5, 12]: 0.8 | fold induction at 50 µM [6, 13]: 1.3 | fold induction at 50 µM [7, 14]: 0.9

Cc1ccc(S(=O)(=O)NC(=O)NN2CC3CCCC3C2)cc1 (centres unmarked) [Gliclazide]
fold induction at 50 µM ([1]; planktonic, cutoff for positive 3-fold increase, read-out: AK-based Prestwick Library Screening Results, E. faecium (fold increase in extracellular AK activity)): 1 | fold induction at 50 µM ([2]; planktonic, cutoff for positive 3-fold increase, read-out: AK-based Prestwick Library Screening Results, S. aureus (fold increase in extracellular AK activity)): 1 | fold induction at 50 µM ([3]; planktonic, cutoff for positive 3-fold increase, read-out: AK-based Prestwick Library Screening Results, K. pneumoniae (fold increase in extracellular AK activity)): 1.2 | fold induction at 50 µM ([4]; planktonic, cutoff for positive 3-fold increase, read-out: AK-based Prestwick Library Screening Results, A. baumannii (fold increase in extracellular AK activity)): 1.3 | fold induction at 50 µM ([5]; planktonic, cutoff for positive 3-fold increase, read-out: AK-based Prestwick Library Screening Results, P. aeruginosa (fold increase in extracellular AK activity)): 1.2 | fold induction at 50 µM ([6]; planktonic, cutoff for positive 3-fold increase, read-out: AK-based Prestwick Library Screening Results, E. cloacae (fold increase in extracellular AK activity)): 1.8 | fold induction at 50 µM ([7]; planktonic, cutoff for positive 3-fold increase, read-out: AK-based Prestwick Library Screening Results, E. coli (fold increase in extracellular AK activity)): 1.2

C[C@]12C[C@H](O)[C@H]3[C@@H](CCC4=CC(=O)CC[C@@]43C)[C@@H]1CC[C@@H]2C(=O)CO [Corticosterone]
fold induction at 50 µM ([1]; planktonic E. faecium, cutoff for positive-scoring molecules 3-fold increase, read-out: AK-based Prestwick Library Screening Results, E. faecium (increase in extracellular AK activity)): 0.9 | fold induction at 50 µM ([2]; planktonic S. aureus, cutoff for positive-scoring molecules 3-fold increase, read-out: AK-based Prestwick Library Screening Results, S. aureus (increase in extracellular AK activity)): 0.6 | fold induction at 50 µM ([3]; planktonic K. pneumoniae, cutoff for positive-scoring molecules 3-fold increase, read-out: AK-based Prestwick Library Screening Results, K. pneumoniae (increase in extracellular AK activity)): 0.7 | fold induction at 50 µM ([4]; planktonic A. baumannii, cutoff for positive-scoring molecules 3-fold increase, read-out: AK-based Prestwick Library Screening Results, A. baumannii (increase in extracellular AK activity)): 0.9 | fold induction at 50 µM ([5]; planktonic P. aeruginosa, cutoff for positive-scoring molecules 3-fold increase, read-out: AK-based Prestwick Library Screening Results, P. aeruginosa (increase in extracellular AK activity)): 0.8 | fold induction at 50 µM ([6]; planktonic E. cloacae, cutoff for positive-scoring molecules 3-fold increase, read-out: AK-based Prestwick Library Screening Results, E. cloacae (increase in extracellular AK activity)): 1.2 | fold induction at 50 µM ([7]; planktonic E. coli, cutoff for positive-scoring molecules 3-fold increase, read-out: AK-based Prestwick Library Screening Results, E. coli (increase in extracellular AK activity)): 0.9
